The values below are quoted from earlier work in patent US9125411B2, “UV absorbers for reducing the E/Z isomerization of pesticides” (BASF SE, priority 2010, dated 2015).

With metaflumizone, for the setting “E isomer higher than Z isomer”, the “pesticidal activity of the E isomer relative to the Z isomer” value is “up to 10 fold”. Further, the “change of activity by irradiation by light” value (Takagi et al., Veterinary Parasitology, 2007) was “loses activity”.
